Values belong to the compound of their own block, whether it stands above or below them.
Legend:
[1] = biological target: Receptor tyrosine-protein kinase erbB-2 (Homo sapiens, UniProt P04626); settings: at 10 µM
[2] = biological target: T1, Bone morphogenetic protein receptor type-1A (Homo sapiens, UniProt P36894); assay: Selectivity interaction (Ambit KINOMEscan and KiNATiv profiling in Jurkat cells) EUB0000090b BMPR1A; assay type: cell-based; settings: at 1 µM
[3] = biological target: T2, Mitogen-activated protein kinase kinase kinase 15 (Homo sapiens) (UniProt Q6ZN16); assay: Selectivity interaction (Ambit KINOMEscan and KiNATiv profiling in Jurkat cells) EUB0000090b MAP3K15; assay type: cell-based; settings: at 1 µM
T2 sequence (whole entry): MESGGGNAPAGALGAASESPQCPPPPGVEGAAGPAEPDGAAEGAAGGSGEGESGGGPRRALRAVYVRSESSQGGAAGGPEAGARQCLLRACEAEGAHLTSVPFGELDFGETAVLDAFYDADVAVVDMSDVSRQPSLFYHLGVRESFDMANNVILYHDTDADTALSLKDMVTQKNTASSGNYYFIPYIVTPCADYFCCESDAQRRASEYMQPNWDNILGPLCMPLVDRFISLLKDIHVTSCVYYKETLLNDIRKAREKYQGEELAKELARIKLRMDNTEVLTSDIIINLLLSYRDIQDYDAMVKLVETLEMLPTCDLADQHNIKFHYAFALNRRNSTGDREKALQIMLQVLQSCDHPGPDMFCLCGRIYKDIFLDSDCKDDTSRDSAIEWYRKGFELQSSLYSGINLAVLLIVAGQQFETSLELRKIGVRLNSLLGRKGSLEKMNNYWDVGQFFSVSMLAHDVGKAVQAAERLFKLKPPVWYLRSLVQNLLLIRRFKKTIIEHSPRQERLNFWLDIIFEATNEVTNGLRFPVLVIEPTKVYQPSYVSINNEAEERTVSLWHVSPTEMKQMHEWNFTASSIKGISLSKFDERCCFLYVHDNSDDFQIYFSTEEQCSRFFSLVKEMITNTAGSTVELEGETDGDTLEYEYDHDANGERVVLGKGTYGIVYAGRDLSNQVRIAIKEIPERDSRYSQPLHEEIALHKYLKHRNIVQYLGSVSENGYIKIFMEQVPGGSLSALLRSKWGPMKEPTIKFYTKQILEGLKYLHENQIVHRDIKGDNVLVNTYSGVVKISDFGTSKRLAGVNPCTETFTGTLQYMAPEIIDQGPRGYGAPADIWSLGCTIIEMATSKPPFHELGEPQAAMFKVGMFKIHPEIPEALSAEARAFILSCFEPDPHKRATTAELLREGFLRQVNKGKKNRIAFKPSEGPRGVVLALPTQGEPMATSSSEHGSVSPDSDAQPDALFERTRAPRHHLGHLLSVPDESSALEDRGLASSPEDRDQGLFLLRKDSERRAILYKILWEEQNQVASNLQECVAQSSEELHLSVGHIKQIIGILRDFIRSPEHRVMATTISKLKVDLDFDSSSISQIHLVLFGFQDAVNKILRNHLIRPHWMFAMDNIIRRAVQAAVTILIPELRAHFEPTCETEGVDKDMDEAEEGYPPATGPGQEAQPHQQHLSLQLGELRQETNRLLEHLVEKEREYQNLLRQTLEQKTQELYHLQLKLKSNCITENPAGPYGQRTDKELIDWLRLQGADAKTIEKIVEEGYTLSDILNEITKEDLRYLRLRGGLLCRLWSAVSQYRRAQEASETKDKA

Misshapen-like kinase 1 = Misshapen-like kinase 1 (Homo sapiens, UniProt Q8N4C8); assay: Selectivity interaction (KinomeScan (DiscoverX)) EUB0000655a MINK1; settings: at 10 µM
[4] = biological target: Glycogen synthase kinase-3 alpha (Homo sapiens, UniProt P49840); assay: Selectivity interaction (KinomeScan (DiscoverX)) EUB0001619a GSK3A; settings: at 1 µM
[5] = biological target: Tyrosine-protein kinase HCK (Homo sapiens) (UniProt P08631); assay: Selectivity interaction (KinomeScan (DiscoverX)) EUB0001619a HCK; settings: at 1 µM
[6] = biological target: Fibroblast growth factor receptor 1 (Homo sapiens, UniProt P11362); assay: Selectivity interaction (Kinase panel (DSF assay)) EUB0001558a FGFR1
[7] = biological target: T3, Testis-specific serine/threonine-protein kinase 2 (Homo sapiens) (UniProt Q96PF2); assay: Selectivity interaction (Upstate Kinase Profiler service (Millipore)) EUB0000056c TSSK2; settings: at 1 µM
T3 sequence (whole entry): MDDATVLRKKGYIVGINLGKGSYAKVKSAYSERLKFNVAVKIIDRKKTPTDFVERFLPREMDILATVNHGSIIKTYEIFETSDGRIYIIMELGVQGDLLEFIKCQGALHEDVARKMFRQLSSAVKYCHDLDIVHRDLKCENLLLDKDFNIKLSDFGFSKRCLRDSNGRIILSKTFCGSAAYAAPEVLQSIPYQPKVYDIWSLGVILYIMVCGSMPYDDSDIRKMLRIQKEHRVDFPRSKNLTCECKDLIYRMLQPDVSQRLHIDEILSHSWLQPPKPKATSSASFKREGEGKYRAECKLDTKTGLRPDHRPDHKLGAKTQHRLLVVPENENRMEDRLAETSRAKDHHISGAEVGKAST

[8] = biological target: 1-phosphatidylinositol 3-phosphate 5-kinase (Homo sapiens) (UniProt Q9Y2I7); assay: Selectivity interaction (Kinase panel (KiNativ target engagement assay in Jurkat cells)) EUB0001635a PIKFYVE; assay type: cell-based; settings: Selectivity number of off-targets 0.0, Selectivity number of targets 233.0, Source Knowledge https://www.sciencedirect.com/science/article/pii/S2451945619300674?via%3Dihub, at 1 µM
[9] = biological target: T1, Bone morphogenetic protein receptor type-1A; assay: Selectivity interaction (KinomeScan (DiscoverX)) EUB0000666a BMPR1A; settings: at 10 µM
Insulin receptor = Insulin receptor (Homo sapiens, UniProt P06213); assay: Selectivity interaction (KinomeScan (DiscoverX)) EUB0000092b INSR; settings: at 10 µM
[10] = biological target: Protein polybromo-1 (Homo sapiens) (UniProt Q86U86); assay: Selectivity interaction (Human bromodomain panel (DSF assay)) EUB0000233b PBRM1

T1 sequence (P36894 whole entry): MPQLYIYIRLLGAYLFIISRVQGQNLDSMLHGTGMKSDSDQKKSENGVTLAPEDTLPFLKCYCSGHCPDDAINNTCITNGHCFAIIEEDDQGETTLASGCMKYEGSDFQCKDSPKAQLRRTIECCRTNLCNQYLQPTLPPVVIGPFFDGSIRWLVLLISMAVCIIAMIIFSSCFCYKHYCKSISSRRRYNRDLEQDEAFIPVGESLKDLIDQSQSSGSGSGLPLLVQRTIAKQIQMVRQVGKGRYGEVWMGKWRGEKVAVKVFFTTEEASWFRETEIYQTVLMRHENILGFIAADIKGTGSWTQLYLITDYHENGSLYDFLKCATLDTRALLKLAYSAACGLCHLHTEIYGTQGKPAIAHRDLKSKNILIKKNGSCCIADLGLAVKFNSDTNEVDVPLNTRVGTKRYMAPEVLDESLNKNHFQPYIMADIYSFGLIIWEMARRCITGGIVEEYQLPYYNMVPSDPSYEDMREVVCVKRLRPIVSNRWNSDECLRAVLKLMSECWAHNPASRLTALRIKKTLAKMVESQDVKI
Tyrosine-protein kinase HCK (Homo sapiens), sequence (P08631 2-526 limits assumed): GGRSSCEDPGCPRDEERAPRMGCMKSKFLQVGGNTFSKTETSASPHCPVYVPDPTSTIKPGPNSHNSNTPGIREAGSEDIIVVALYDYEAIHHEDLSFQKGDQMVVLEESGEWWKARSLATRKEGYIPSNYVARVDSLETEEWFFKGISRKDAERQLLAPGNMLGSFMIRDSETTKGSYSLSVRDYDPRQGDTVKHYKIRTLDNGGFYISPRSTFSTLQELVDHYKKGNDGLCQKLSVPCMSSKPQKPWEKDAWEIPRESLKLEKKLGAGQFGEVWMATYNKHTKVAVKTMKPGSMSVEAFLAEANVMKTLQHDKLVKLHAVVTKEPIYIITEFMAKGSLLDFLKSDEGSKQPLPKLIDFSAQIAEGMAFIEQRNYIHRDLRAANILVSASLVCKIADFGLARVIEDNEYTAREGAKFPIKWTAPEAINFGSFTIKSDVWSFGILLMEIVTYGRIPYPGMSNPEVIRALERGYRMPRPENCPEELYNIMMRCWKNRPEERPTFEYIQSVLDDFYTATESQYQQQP
Glycogen synthase kinase-3 alpha, sequence (P49840 2-483 limits assumed): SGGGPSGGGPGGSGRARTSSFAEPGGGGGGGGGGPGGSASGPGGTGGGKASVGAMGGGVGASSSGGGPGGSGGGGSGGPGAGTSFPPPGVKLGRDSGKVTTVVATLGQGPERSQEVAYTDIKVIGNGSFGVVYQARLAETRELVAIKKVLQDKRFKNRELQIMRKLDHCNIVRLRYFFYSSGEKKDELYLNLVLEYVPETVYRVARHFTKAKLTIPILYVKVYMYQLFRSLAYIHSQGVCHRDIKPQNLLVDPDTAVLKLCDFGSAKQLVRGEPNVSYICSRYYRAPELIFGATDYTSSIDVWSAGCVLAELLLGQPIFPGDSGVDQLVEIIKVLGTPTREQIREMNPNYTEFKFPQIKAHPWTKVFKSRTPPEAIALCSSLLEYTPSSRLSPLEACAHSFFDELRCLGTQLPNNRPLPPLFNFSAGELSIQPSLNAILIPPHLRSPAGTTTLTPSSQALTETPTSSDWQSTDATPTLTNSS
Fibroblast growth factor receptor 1, sequence (P11362 22-822 limits assumed): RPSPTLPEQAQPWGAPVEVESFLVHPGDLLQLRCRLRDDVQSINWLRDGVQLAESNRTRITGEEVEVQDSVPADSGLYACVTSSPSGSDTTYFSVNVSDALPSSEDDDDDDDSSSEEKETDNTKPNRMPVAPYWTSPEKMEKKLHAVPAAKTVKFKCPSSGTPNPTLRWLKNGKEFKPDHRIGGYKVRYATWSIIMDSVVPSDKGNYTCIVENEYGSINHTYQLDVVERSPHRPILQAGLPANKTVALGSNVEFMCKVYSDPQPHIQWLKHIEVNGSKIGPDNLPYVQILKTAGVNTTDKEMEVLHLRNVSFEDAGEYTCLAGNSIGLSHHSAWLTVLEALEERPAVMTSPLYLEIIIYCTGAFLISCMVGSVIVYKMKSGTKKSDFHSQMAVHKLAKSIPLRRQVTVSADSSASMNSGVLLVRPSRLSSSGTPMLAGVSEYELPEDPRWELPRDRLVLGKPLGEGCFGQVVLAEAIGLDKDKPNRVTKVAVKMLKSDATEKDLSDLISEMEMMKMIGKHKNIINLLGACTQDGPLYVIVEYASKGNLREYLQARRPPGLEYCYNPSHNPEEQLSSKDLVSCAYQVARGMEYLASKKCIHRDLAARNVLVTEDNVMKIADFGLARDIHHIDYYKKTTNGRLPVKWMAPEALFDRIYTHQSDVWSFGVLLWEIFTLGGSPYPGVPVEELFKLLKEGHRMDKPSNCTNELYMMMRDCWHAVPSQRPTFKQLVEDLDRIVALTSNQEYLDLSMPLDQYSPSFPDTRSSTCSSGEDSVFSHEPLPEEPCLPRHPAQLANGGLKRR
Insulin receptor, sequence (P06213 28-758 limits assumed): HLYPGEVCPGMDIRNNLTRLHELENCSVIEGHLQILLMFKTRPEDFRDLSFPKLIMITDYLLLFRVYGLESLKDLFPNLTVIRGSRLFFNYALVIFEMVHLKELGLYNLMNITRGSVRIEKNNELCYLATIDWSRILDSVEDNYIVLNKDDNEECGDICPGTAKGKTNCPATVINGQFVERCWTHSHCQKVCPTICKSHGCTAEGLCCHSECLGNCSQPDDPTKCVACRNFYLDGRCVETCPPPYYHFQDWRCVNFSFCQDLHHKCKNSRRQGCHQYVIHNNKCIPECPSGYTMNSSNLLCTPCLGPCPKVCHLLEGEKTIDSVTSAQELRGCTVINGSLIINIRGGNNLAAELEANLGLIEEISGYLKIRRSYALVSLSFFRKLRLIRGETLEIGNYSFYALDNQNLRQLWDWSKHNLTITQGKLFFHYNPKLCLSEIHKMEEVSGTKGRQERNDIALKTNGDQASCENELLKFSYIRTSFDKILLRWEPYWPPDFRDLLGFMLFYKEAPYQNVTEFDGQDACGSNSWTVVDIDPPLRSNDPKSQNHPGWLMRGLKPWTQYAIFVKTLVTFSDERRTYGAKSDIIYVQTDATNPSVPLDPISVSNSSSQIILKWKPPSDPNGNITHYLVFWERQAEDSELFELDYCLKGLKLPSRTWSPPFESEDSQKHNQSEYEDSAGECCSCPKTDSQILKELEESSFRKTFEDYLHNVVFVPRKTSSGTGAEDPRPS
Insulin receptor, sequence (P06213 763-1382 limits assumed): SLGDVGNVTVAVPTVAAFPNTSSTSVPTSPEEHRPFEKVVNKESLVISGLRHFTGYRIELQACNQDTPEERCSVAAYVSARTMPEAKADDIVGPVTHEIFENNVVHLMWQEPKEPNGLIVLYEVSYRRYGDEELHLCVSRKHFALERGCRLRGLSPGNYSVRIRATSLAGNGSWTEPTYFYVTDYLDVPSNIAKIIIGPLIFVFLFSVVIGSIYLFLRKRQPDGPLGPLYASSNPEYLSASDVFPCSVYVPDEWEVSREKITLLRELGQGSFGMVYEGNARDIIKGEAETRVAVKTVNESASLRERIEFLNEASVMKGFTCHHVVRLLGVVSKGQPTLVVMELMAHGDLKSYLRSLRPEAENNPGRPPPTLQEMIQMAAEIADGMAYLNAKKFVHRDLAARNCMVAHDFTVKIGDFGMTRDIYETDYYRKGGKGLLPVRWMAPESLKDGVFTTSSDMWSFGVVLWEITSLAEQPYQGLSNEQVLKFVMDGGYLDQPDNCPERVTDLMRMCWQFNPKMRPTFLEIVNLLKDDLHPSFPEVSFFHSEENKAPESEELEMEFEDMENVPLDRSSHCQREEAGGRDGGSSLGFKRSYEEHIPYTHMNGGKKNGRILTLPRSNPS
Misshapen-like kinase 1, sequence (Q8N4C8 whole entry, looked up): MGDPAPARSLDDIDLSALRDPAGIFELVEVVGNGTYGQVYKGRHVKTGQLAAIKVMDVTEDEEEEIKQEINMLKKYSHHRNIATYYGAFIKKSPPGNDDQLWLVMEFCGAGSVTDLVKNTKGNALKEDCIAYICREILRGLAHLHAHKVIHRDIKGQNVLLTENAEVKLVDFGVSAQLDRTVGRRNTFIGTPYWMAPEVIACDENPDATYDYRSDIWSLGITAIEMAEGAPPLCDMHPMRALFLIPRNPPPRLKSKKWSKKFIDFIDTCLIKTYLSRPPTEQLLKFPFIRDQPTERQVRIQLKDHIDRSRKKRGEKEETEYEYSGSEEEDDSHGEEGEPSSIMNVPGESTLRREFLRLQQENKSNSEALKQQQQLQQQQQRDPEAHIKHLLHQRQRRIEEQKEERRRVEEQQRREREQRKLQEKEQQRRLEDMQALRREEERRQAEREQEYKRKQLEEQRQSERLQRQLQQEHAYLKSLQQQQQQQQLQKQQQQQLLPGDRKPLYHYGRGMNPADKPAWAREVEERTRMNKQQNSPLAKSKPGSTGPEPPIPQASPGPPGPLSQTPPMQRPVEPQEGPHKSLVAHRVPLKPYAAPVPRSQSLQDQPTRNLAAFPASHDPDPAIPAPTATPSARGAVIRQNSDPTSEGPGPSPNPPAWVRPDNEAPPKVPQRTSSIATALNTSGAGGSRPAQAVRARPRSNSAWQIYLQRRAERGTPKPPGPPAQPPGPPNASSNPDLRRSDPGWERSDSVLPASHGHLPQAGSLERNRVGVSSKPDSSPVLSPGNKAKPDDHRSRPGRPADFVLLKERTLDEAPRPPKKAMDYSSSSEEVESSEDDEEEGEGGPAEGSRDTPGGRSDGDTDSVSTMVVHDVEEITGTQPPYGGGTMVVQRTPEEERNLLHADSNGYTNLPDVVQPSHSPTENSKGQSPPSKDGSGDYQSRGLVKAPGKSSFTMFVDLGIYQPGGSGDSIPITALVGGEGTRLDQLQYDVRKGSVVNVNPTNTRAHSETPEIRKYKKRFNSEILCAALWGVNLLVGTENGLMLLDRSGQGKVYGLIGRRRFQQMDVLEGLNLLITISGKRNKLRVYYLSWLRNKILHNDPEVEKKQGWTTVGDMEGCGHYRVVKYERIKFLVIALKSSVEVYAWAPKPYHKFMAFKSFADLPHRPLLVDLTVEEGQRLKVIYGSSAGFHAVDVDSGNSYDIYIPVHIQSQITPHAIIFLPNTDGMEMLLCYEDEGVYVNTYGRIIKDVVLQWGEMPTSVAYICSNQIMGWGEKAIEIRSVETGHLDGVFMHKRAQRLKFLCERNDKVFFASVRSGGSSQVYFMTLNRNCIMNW

- % of control [1]: 100%
Structure (SMILES): CCN(CC)CCCCNc1ncc2cc(-c3cc(OC)cc(OC)c3)c(NC(=O)NC(C)(C)C)nc2n1

Structure (SMILES): CN(C)C/C=C/C(=O)Nc1ccc(C(=O)N2CCCC(Nc3ncc(Cl)c(-c4c[nH]c5ccccc45)n3)C2)cc1 (configuration not stated)
- % of control [2]: 100%
- % of control [3]: 73%

Structure (SMILES): CN(C)CCOc1ccc(-c2nc(-c3ccncc3)c(-c3ccc4c(c3)CC/C4=N\O)[nH]2)cc1
- % of control (Misshapen-like kinase 1): 6%

Structure (SMILES): N#Cc1cccc(-c2c[nH]c3ncnc(N4CCOCC4)c23)c1
- % of control [4]: 100%
- % of control [5]: 100%

Structure (SMILES): CC(C)(O)[C@H](F)CN1Cc2cc(NC(=O)c3cnn4cccnc34)c(N3CCOCC3)cc2C1=O
- dTM [6]: 1.1 K

- % of inhibition [7]: 4%
Structure (SMILES): Cc1ccc(-c2ccc3c(ccc4sc5c(c43)NC[C@@H](C)NC5=O)n2)cn1

Structure (SMILES): C=CC(=O)Nc1ccc(C(=O)Nc2[nH]nc3c2CN(C(=O)N[C@H](CN(C)C)c2ccccc2)C3(C)C)cc1
- % of engagement [8]: -3.5%

Structure (SMILES): O=C(NOC[C@H](O)CO)c1ccc(F)c(F)c1Nc1ccc(I)cc1F
- % of control [9]: 100%

Structure (SMILES): CCC(=O)N1CCN(c2ccc(-n3c(=O)ccc4cnc5ccc(-c6cnc7ccccc7c6)cc5c43)cc2C(F)(F)F)CC1
- % of control (Insulin receptor): 7.6%

- dTM [10]: < 2 K
Structure (SMILES): CN(C)CCCOc1ccc(-c2cc(NCCCn3cccn3)nc(S(C)(=O)=O)n2)cc1

— ChEMBL document CHEMBL5465560, “Selectivity Literature for EUbOPEN Chemogenomic Library” (2024)
